The values below come from US20120129842A1, “BISTHIAZOLE INHIBITORS OF PRO-MATRIX METALLOPROTEINASE ACTIVATION” (priority 2010, published 2012).

For experiment [1], the target named is T1, proMMP9(20-445;ΔFnII) (SEQ ID NO:6) (Homo sapiens, UniProt P14780, DEL216-390).
T1 construct: start methionine (N); made in house; host or cells: E. coli BL21(DE3) RIL
T1 sequence (P14780 with tags, fused parts or gaps DEL216-390): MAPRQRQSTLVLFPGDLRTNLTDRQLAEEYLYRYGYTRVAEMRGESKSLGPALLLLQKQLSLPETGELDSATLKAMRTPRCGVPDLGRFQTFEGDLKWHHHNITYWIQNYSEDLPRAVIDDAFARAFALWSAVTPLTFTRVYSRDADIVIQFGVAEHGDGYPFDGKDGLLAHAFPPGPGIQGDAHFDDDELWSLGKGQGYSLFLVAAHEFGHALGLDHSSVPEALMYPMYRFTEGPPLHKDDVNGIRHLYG
The experiment is described as follows: ThermoFluor binding assay with proMMP9(20-445;ΔFnII). The note with it: pH 7.0. The method, boiled down: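 proMMP9(20-445;ΔFnII) at 2.8 μM with 50 μM 1,8-ANS in 50 mM HEPES pH 7.0, 100 mM NaCl, 0.001% Tween-20, 2.5 mM MgCl2, 300 μM CaCl2; compounds serially diluted in DMSO. Heated 40–90 °C at 1 °C/min, fluorescence read at 500±25 nm. Tm fit by standard equations; binding fit using DSC/TF-derived thermodynamic parameters.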
(In DSF a fluorescence change marks the thermal transition of the protein.)

Experiment [2] concerns the target T2, full-length proMMP9(1-707) (SEQ ID NO:1) (Homo sapiens, UniProt P14780, R574P).
T2 construct: made in house; host or cells: HEK293 (proMMP9, secreted); E. coli (MMP3)
As to the kind of experiment: ProMMP9/MMP3 DQ Gelatin Activation Assay. It is filed as biochemical. The note with it: 20 nM proMMP9, 10 nM MMP3, DQ gelatin; read-out: ProMMP9/MMP3 DQ gel Activation Assay, IC50.
Method: Compounds were assessed for inhibition of proMMP9 activation by catalytic MMP3 using a quenched fluorescein gelatin substrate (DQ gelatin, Invitrogen D12054) that fluoresces upon cleavage by activated MMP9. The assay buffer employed was 50 mM Hepes, pH 7.5, 10 mM CaCl2, 0.05% Brij-35. DMSO was included at a final concentration of 0.2%, arising from the test compound addition. […] Test compounds in DMSO were diluted 250-fold in assay buffer at 4× the final concentration. The reaction volume was 12 μL, and all reactions were conducted in triplicate. […] The plate was sealed and incubated for 30 min at 37° C. […] Immediately following the 30 min incubation, 4 μL of 40 μg/ml DQ gelatin substrate was added (freshly diluted in assay buffer), and incubated for 10 min at room temperature. The reaction was stopped by the addition of 4 μL of 50 mM EDTA, and the resulting activity associated with catalytic MMP9 was determined at 485 nm excitation, 535 nm emission using an Envision fluorescent reader (Perkin Elmer). Reactivity of residual MMP3 towards DQ gelatin was minimal under these conditions. Percent inhibition of test compounds were determined from suitable positive (DMSO only in assay buffer) and negative (EDTA added prior to reaction initiation) controls. Plots of % inhibition vs. test compound concentration were fit to a four-parameter logistics equation (GraphPad Prism® software) for determination of IC50.

Experiment [3] deals with T3, proMMP9(67-444;ΔFnII) (SEQ ID NO:5) (Homo sapiens, UniProt P14780, DEL216-390).
T3 construct: start methionine (N); made in house; host or cells: E. coli BL21(DE3) RIL
T3 sequence (P14780 with tags, fused parts or gaps DEL216-390): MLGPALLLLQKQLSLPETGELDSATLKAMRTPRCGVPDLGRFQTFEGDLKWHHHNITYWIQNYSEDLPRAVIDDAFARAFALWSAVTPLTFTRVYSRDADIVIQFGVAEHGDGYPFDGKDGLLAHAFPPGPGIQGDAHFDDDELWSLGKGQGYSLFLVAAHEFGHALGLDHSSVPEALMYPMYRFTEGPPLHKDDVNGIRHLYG
The experiment is described as follows: ThermoFluor binding assay with proMMP9(67-444;ΔFnII). The note with it: pH 7.0. The method, boiled down:
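Thermal shift binding with 3.5 μM proMMP9(67-444;ΔFnII) and 50 μM 1,8-ANS in 50 mM HEPES pH 7.0, 100 mM NaCl, 2.5 mM MgCl2, 300 μM CaCl2, 0.001% Tween-20, with serially diluted compound. Heated 40 to 90° C at 1° C/min; fluorescence-derived Tm fitted using DSC/ThermoFluor thermodynamic parameters.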

Experiment [4] addresses proMMP13(1-268) (SEQ ID NO:7) (Homo sapiens, UniProt P45452). The experiment is described as follows: ThermoFluor binding assay with proMMP13(1-268). The note with it: pH 7.0. On the set-up: 6xHis (C); made in house. In a few lines: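 Thermal shift binding with 3.5 μM protein and 25 μM 1,8-ANS in 50 mM HEPES pH 7.0, 100 mM NaCl, 0.001% Tween-20, 2.5 mM MgCl2, 300 μM CaCl2. Samples were heated 40 to 90 °C at 1 °C/min, fluorescence read at 500 nm. Tm shifts across an 11-point DMSO dilution series were fitted with DSC-derived thermodynamic parameters.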

Experiment [5] addresses T2, full-length proMMP9(1-707) (SEQ ID NO:1). The experiment is described as follows: proMMP9/MMP3 P126 Activation Assay. The format is biochemical. The note with it: 20 nM proMMP9, 20 nM MMP3, 80 min 37° C. The method, then: The reaction volume was 50 μL. […] Reactivity of residual MMP3 towards P-126 substrate was minimal under these conditions.

Where a name gives a salt, the structure may show the parent alone.

T2 sequence (P14780 20-707 R574P): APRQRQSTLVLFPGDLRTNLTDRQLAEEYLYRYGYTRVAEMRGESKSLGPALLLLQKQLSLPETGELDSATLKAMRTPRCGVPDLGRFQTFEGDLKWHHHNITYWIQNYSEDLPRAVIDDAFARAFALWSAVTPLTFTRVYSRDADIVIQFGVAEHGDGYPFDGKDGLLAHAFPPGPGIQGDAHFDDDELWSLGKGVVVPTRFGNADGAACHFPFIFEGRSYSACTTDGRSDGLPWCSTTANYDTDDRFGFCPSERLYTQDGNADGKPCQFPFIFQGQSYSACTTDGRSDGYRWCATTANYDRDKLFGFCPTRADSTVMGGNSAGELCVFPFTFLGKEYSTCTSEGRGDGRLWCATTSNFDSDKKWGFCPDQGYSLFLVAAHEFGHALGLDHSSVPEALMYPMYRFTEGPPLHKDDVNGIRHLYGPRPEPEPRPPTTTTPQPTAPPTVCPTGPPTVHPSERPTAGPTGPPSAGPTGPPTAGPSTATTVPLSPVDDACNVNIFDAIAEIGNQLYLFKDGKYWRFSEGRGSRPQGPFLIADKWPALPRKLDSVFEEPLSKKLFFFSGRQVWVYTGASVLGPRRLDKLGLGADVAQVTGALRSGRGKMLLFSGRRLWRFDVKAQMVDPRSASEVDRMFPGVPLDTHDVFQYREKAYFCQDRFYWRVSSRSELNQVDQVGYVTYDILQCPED

Take `COc1ccc(C)cc1Nc1nc(-c2sc(NC(C)=O)nc2C)cs1` [Example 11, N-[2-(2-Methoxy-5-methyl-phenylamino)-4′-methyl-[4,5′]bithiazolyl-2′-yl]-acetamide]: the dissociation constant (Kd) in experiment [1] stood at 9.8 µM; in experiment [3], 1.1 µM; in experiment [4] it was 30 µM. In addition, in experiment [2], the IC50 was found to be 9 µM.

For the compound `Cc1nc(CN2CCCN(C)CC2)sc1-c1csc(Nc2cc(C(N)=O)ccc2OC(C)C)n1` [Example 126, 4-Isopropoxy-3-[4′-methyl-2′-(4-methyl-[1,4]diazepan-1-ylmethyl)-[4,5′]bithiazolyl-2-ylamino]-benzamide.TFA], the Kd in experiment [1] worked out at 1.1 µM; in experiment [3], 4.7 µM; in experiment [4] it was 11 µM. Also, the IC50 in experiment [5] is 0.77 µM.

`Cc1nc(CN2CCC(O)CC2)sc1-c1csc(Nc2cc(C(N)=O)ccc2OC(C)C)n1` [Example 127, 3-[2′-(4-Hydroxy-piperidin-1-ylmethyl)-4′-methyl-[4,5′]bithiazolyl-2-ylamino]-4-isopropoxy-benzamide.TFA]: the Kd in experiment [1] worked out at 0.73 µM; in experiment [3] it was 3.5 µM; in experiment [4], 8.6 µM. The same compound showed an IC50 in experiment [5] of 0.65 µM.

As for `Cc1nc(CN2CCCCC2)sc1-c1csc(Nc2cc(C(N)=O)ccc2OC(C)C)n1` [Example 128, 4-Isopropoxy-3-(4′-methyl-2′-piperidin-1-ylmethyl-[4,5′]bithiazolyl-2-ylamino)-benzamide.TFA], the results for the Kd in experiment [1], in experiment [3] and in experiment [4] were 0.5 µM, 2.7 µM and 5.2 µM, respectively. In experiment [5], this compound returned an IC50 of 1.3 µM.

With `Cc1nc(CN(C)C)sc1-c1csc(Nc2cc(C(N)=O)ccc2OC(C)C)n1` [Example 129, 3-(2′-Dimethylaminomethyl-4′-methyl-[4,5′]bithiazolyl-2-ylamino)-4-isopropoxy-benzamide.TFA], the figures for the Kd in experiment [1], in experiment [3] and in experiment [4] were 0.72 µM, 4.7 µM and 5.1 µM, respectively. The same compound had an IC50 in experiment [5] of 1.2 µM.

As to `Cc1nc(CN2CCCC2)sc1-c1csc(Nc2cc(C(N)=O)ccc2OC(C)C)n1` [Example 130, 4-Isopropoxy-3-(4′-methyl-2′-pyrrolidin-1-ylmethyl-[4,5′]bithiazolyl-2-ylamino)-benzamide.TFA], the Kd is 0.55 µM in experiment [1], 3 µM in experiment [3] and 4.9 µM in experiment [4]. Moreover, the IC50 in experiment [5] is 0.7 µM.

Turning to `Cc1nc(CN2CCN(C)CC2)sc1-c1csc(Nc2cc(C(N)=O)ccc2OC(C)C)n1` [Example 131, 4-Isopropoxy-3-[4′-methyl-2′-(4-methyl-piperazin-1-ylmethyl)-[4,5′]bithiazolyl-2-ylamino]-benzamide.TFA], the results for the Kd in experiment [1], in experiment [3] and in experiment [4] were 0.77 µM, 3.3 µM and 5.6 µM, respectively. In experiment [5], this compound came in with an IC50 of 0.73 µM.

For the compound `Cc1nc(S(C)(=O)=O)sc1-c1csc(Nc2cc(C(N)=O)ccc2OC(C)C)n1` [Example 132, 4-Isopropoxy-3-(2′-methanesulfonyl-4′-methyl-[4,5′]bithiazolyl-2-ylamino)-benzamide], the values for the Kd in experiment [1], in experiment [3] and in experiment [4] were 4.3 µM, 21 µM and 11 µM, respectively. This compound displayed an IC50 in experiment [5] of 0.72 µM.

As for `Cc1nc(CN(C)CCN(C)C)sc1-c1csc(Nc2cc(C(N)=O)ccc2OC(C)C)n1` [Example 133, 3-(2′-{[(2-Dimethylamino-ethyl)-methyl-amino]-methyl}-4′-methyl-[4,5]bithiazolyl-2-ylamino)-4-isopropoxy-benzamide.TFA], the dissociation constant Kd is 0.97 µM in experiment [1], 4 µM in experiment [3] and 3.8 µM in experiment [4]. The IC50 in experiment [5] was determined as 0.66 µM.

With `COc1ccc(-c2cn[nH]c2)cc1Nc1nc(-c2sc(C)nc2C)cs1` [Example 138, (2′,4′-Dimethyl-[4,5′]bithiazolyl-2-yl)-[2-methoxy-5-(1H-pyrazol-4-yl)-phenyl]-amine], the Kd in experiment [1] worked out at 1.7 µM; in experiment [3], 0.48 µM; in experiment [4] it was 0.83 µM. In experiment [5], this compound came in with an IC50 of 0.73 µM.

With `COc1ccc(-c2ccnn2C)cc1Nc1nc(-c2sc(C)nc2C)cs1` [Example 139], the Kd in experiment [1] was 75 µM; in experiment [3], 11 µM; in experiment [4], 8.1 µM. In experiment [5], this compound yielded an IC50 of 5.2 µM.

For `C=Cc1ccc(OC)c(Nc2nc(-c3sc(C)nc3C)cs2)c1` [Example 140, (2′,4′-Dimethyl-[4,5′]bithiazolyl-2-yl)-(2-methoxy-5-vinyl-phenyl)-amine], the values for the dissociation constant Kd in experiment [1], in experiment [3] and in experiment [4] were above 95 µM, 45 µM and 26 µM, respectively. The same compound yielded an IC50 in experiment [5] of 5.5 µM.

On to `COc1ccc(-c2cccnc2)cc1Nc1nc(-c2sc(C)nc2C)cs1` [Example 141, (2′,4′-Dimethyl-[4,5′]bithiazolyl-2-yl)-(2-methoxy-5-pyridin-3-yl-phenyl)-amine], for which the dissociation constant Kd in experiment [1] is above 95 µM; in experiment [3], 15 µM; in experiment [4] it was 4.3 µM. For the same compound, the IC50 in experiment [5] was around 12 µM.

As for `COc1ccc(-c2nccs2)cc1Nc1nc(-c2sc(C)nc2C)cs1` [Example 142, (2′,4′-Dimethyl-[4,5′]bithiazolyl-2-yl)-(2-methoxy-5-thiazol-2-yl-phenyl)-amine.TFA], the Kd in experiment [1] is above 95 µM; in experiment [3] it was 58 µM; in experiment [4], 6.7 µM. Also, the IC50 in experiment [5] came to 11 µM.

With `COc1ccc(-c2cncn2C)cc1Nc1nc(-c2sc(C)nc2C)cs1` [Example 143, (2′,4′-Dimethyl-[4,5′]bithiazolyl-2-yl)-[2-methoxy-5-(3-methyl-3H-imidazol-4-yl)-phenyl]-amine], the Kd came out at 62 µM in experiment [1], 16 µM in experiment [3] and 6 µM in experiment [4]. In experiment [5], this compound registered an IC50 of around 6 µM.

As for `Cc1nc(C)c(-c2csc(Nc3cc(S(N)(=O)=O)ccc3OC(F)(F)F)n2)s1` [Example 144, 3-(2′,4′-Dimethyl-[4,5′]bithiazolyl-2-ylamino)-4-trifluoromethoxy-benzenesulfonamide.HCl], the Kd in experiment [1] came out at 1 µM; in experiment [3], 2 µM; in experiment [4], 3.6 µM. This compound also gave an IC50 in experiment [5] of 1.6 µM.

In the case of `CC(=O)Nc1nc(C)c(-c2csc(Nc3cccc4cccnc34)n2)s1` [Example 146, N-[4′-Methyl-2-(quinolin-8-ylamino)-[4,5′]bithiazolyl-2′-yl]-acetamide.TFA], the Kd in experiment [1] came to 4.6 µM; in experiment [3], 1.3 µM. Further, in experiment [2], the IC50 worked out at 5.9 µM.

For the compound `COc1ncccc1Nc1nc(-c2sc(NC(C)=O)nc2C)cs1` [Example 147, N-[2-(2-Methoxy-pyridin-3-ylamino)-4′-methyl-[4,5′]bithiazolyl-2′-yl]-acetamide.TFA], the dissociation constant Kd in experiment [1] was found to be 12 µM; in experiment [3], 7.6 µM. The IC50 in experiment [2] came out at 20 µM.

In the case of `CC(=O)Nc1nc(C)c(-c2csc(Nc3cccnc3O)n2)s1` [Example 148, N-[2-(2-Hydroxy-pyridin-3-ylamino)-4′-methyl-[4,5′]bithiazolyl-2′-yl]-acetamide.HBr], the dissociation constant (Kd) in experiment [1] and in experiment [3] was above 8 µM each time. The IC50 in experiment [2] turned out to be 6 µM.

For the compound `CC(=O)Nc1nc(C)c(-c2csc(Nc3cccc4ccccc34)n2)s1` [Example 149, N-[4′-Methyl-2-(naphthalen-1-ylamino)-[4,5′]bithiazolyl-2′-yl]-acetamide.HCl], the dissociation constant (Kd) in experiment [1] was determined as 5 µM; in experiment [3], 4.4 µM; in experiment [4], 40 µM. Moreover, the IC50 in experiment [2] turned out to be 27 µM.

Regarding `CC(C)Oc1ccc(C(N)=O)cc1Nc1nc(-c2sc(N)nc2C(F)(F)F)cs1` [Example 150, 3-(2′-Amino-4′-trifluoromethyl-[4,5′]bithiazolyl-2-ylamino)-4-isopropoxy-benzamide], the equilibrium dissociation constant (Kd) in experiment [1] was 0.16 µM; in experiment [3] it was 1.3 µM; in experiment [4], 0.22 µM. The same compound displayed an IC50 in experiment [5] of 1.2 µM.

In general, Kd refers to the constant that tells how readily two partners part at equilibrium. The low end stands for a tighter complex, the high end for a looser complex.
